# Reference: patent US20040006103A1, “Use of chloroquine, hydroxychloroquine and 4 amino-quinolinic derivatives to obtain a drug for the anti retroviral therapy, active towards HIV sensitive strains and towards HIV strains which are resistant to both nucleosidic and non-nucleosidic reverse transcriptase inhibitors and to proteases …” (VALPHARMA S.A., priority 2002, published 2004)
# What was measured:
# [1] = test system: HIV-1 clinical isolated, characterised by mutations in the protease gene inducing geno-phenotypic resistance to IDV; test: p24 production susceptibility test (ACTG protocol), Table 9; format: cell-based; settings: PBMC, ratio to HIV-IIIB
# Description: (§1) For the phenotype of the nucleosidic, non-nucleosidic and proteases inhibitors was utilised a method which consider the use of human PBMC and the protocol standardised by the AIDS Clinical Trials Group, after verifying the genotype by sequence analysis.
# (§2) In order to assay in vitro the susceptibility to chloroquine and hydroxychloroquine of the viral strains, it was used the protocol of the ACTG which is characterised by the measure, of the production of antigen p24 in strongly infected cells.
# (§3) The susceptibility of the viral strains to chemotherapics was determined in cell cultures, prepared in 96 wells microplates, using, for the infection, 0.1 MOI.
# (§4) The supernatant of the infected cultures (either in absence or in presence of different concentrations of chemotherapic) were tested for the production of p24 after 7 days, using an ELISA test which is commercially available.
# (§5) The concentrations of chloroquine and hydroxychloroquine tested ranged from 0.5 to 15 uM. At the same time non-infected cells were incubated with concentrations of chloroquine and hydroxychloroquine ranging from 0 to 50 uM to evaluate the toxicity of the compound.
# (§6) After 4 day from the infection, half the cellular medium was replaced with a medium containing the corresponding dilution of chloroquine and hydroxychloroquine. The percentage of inhibition of the HIV replication, induced by chloroquine and hydroxychloroquine, was determined, after 7 day from the infection, comparing the levels of p24 of this cultures and that of the control, infected and not treated with chloroquine and hydroxychloroquine.
# (§7) Therefore, the E.C.50 of chloroquine and hydroxychloroquine expresses the concentration of chemotherapic that inhibits the 50% of production of p24 and the values were calculated using linear and non linear regression analysis (the significativity for the non linear regression was R^2>0.95).
# (§8) In the same experimental conditions and in the same day, but with similar concentrations of chloroquine and hydroxychloroquine, it was evaluated the vitality of the infect cell cultures, and this was expressed as I.C.50.
# (§9) I.C.50 (Inhibitory Concentration) indicates the concentration of the chemotherapic agent inhibiting the vitality of the cell cultures at a rate of 50%, when there is not infection.
# [2] = test system: HIV-1 clinical isolated, characterised by mutations in the protease gene inducing geno-phenotypic resistance to SQV; test: p24 production susceptibility test (ACTG protocol), Table 8; format: cell-based; settings: PBMC, ratio to HIV-IIIB
# Description: as §1, §2, §3, §4, §5, §6, §7, §8, §9
# [3] = test system: HIV-1 strains geno-phenotypically resistant to EFV; test: p24 production susceptibility test, Table 7, MT-2 cells; format: cell-based; settings: ratio to HIV-IIIB
# [4] = test system: HIV-1 strains geno-phenotypically resistant to EFV; test: as above; format: cell-based; settings: MT-2, ratio to HIV-IIIB
# Description: as §1, §2, §3, §4, §5, §6, §7, §8, §9
# [5] = test system: HIV-1 clinical isolated, characterised by mutations in the RT gene inducing geno-phenotypic resistance to d4T; test: p24 production susceptibility test (ACTG protocol), Table 4; format: cell-based; settings: PBMC, ratio to HIV-IIIB
# Description: as §1, §2, §3, §4, §5, §6, §7, §8, §9
# [6] = test system: HIV-1 strains geno-phenotypically resistant to NVP; test: p24 production susceptibility test, Table 6, MT-2 cells; format: cell-based; settings: MT-2, ratio to HIV-IIIB
# Description: as §1, §2, §3, §4, §5, §6, §7, §8, §9
# [7] = test system: HIV-1 strains geno-phenotypically resistant to NVP; test: as above; format: cell-based; settings: ratio to HIV-IIIB
# [8] = test system: HIV clinical isolated, characterised by mutations in the RT gene inducing geno-phenotypic resistance to AZT; test: p24 production susceptibility test (ACTG protocol), Table 1; format: cell-based, HIV-1; settings: PBMC, ratio to HIV-IIIB
# Description: as §1, §2, §3, §4, §5, §6, §7, §8, §9
# [9] = test system: HIV clinical isolated, characterised by mutations in the RT gene inducing geno-phenotypic resistance to ddI; test: p24 production susceptibility test (ACTG protocol), Table 2; format: cell-based, HIV-1; settings: PBMC, ratio to HIV-IIIB
# Description: as §1, §2, §3, §4, §5, §6, §7, §8, §9
# HIV = settings: 16 weeks, cited from earlier work
# [10] = test system: HIV-1 clinical isolated, characterised by mutations in the RT gene inducing geno-phenotypic resistance to ABC; test: p24 production susceptibility test (ACTG protocol), Table 5; format: cell-based; settings: PBMC, ratio to HIV-IIIB
# Description: as §1, §2, §3, §4, §5, §6, §7, §8, §9
# [11] = test system: HIV-1 clinical isolated, characterised by mutations on the protease gene inducing geno-phenotypic resistance to NFV; test: p24 production susceptibility test (ACTG protocol), Table 10, PBMC; format: cell-based; settings: ratio to HIV-IIIB
# Description: as §1, §2, §3, §4, §5, §6, §7, §8, §9
# [12] = test system: HIV-1 clinical isolated, characterised by mutations on the protease gene inducing geno-phenotypic resistance to NFV; test: p24 production susceptibility test, Table 10, H-9 cells; format: cell-based; settings: H-9, ratio to HIV-IIIB
# Description: as §1, §2, §3, §4, §5, §6, §7, §8, §9
structure (smiles),measurement,setting,value
"CC(C)(C)NC(=O)[C@@H]1CN(Cc2cccnc2)CCN1C[C@@H](O)C[C@@H](Cc1ccccc1)C(=O)N[C@H]1c2ccccc2C[C@H]1O [IDV, Indinavir]",Fen. IDV (fold),[1]; Gen. G48V V82A,>80X fold
same,Fen. IDV (fold),[1]; Gen. I84V L90M,20X fold
same,Fen. IDV (fold),[1]; Gen. K20R E35D M36I I54V V82T,10X fold
same,Fen. IDV (fold),[1]; Gen. L10R M46I L63P V82T,10X fold
same,Fen. IDV (fold),[1]; Gen. V82F L90M,>80X fold
"CC(C)(C)NC(=O)[C@@H]1C[C@@H]2CCCC[C@@H]2CN1C[C@@H](O)[C@H](Cc1ccccc1)NC(=O)[C@H](CC(N)=O)NC(=O)c1ccc2ccccc2n1 [SQV, Saquinavir]",Fen. SQV (fold),[2]; Gen. G48V I84V A74V L90M,40X fold
same,Fen. SQV (fold),[2]; Gen. G48V V82A,>80X fold
same,Fen. SQV (fold),[2]; Gen. I84V L90M,>80X fold
same,Fen. SQV (fold),[2]; Gen. M46I G48V L63P L90M,20X fold
same,Fen. SQV (fold),[2]; Gen. V82A L90M,20X fold
"O=C1Nc2ccc(Cl)cc2[C@@](C#CC2CC2)(C(F)(F)F)O1 [EFV, Efavirenz]",Fen. EFV (fold),[3]; Gen. K103N V108D,>80X fold
same,Fen. EFV (fold),[3]; Gen. K103N,>80X fold
same,Fen. EFV (fold),[3]; Gen. Y181C,20X fold
same,Fen. EFV (fold),[4]; Gen. K101D K103N,>80X fold
same,Fen. EFV (fold),[4]; Gen. K103N Y181C,>80X fold
same,Fen. EFV (fold),[4]; Gen. L100I K103N,>80X fold
"Cc1cn([C@H]2C=C[C@@H](CO)O2)c(=O)[nH]c1=O [D4T, Stavudine]",Fen. D4T (fold),[5]; Gen. K65R F77L Y115F Q151M M184V,40X fold
same,Fen. D4T (fold),[5]; Gen. K65R F116Y Q151M,40X fold
same,Fen. D4T (fold),[5]; Gen. M41I T69SSS T215Y,10X fold
same,Fen. D4T (fold),[5]; Gen. T69SSS T215Y,10X fold
same,Fen. D4T (fold),[5]; Gen. V75I F77L F116Y Q151M,20X fold
"Cc1ccnc2c1NC(=O)c1cccnc1N2C1CC1 [NVP, Nevirapine]",Fen. NVP (fold),[6]; Gen. G190E,>80X fold
same,Fen. NVP (fold),[6]; Gen. V106A,>80X fold
same,Fen. NVP (fold),[7]; Gen. K103N,>80X fold
same,Fen. NVP (fold),[7]; Gen. Y181C,>80X fold
"Cc1cn([C@H]2C[C@H](N=[N+]=[N-])[C@@H](CO)O2)c(=O)[nH]c1=O [AZT, Zidovudine]",Fen AZT (fold),[8]; Gen. D67N K70R T215F K219Q,20X fold
same,Fen AZT (fold),[8]; Gen. D 67 Ns K 70N T215F K219Q,>80X fold
same,Fen AZT (fold),[8]; Gen. K70R T215F K219Q,20X fold
same,Fen AZT (fold),[8]; Gen. M41I M184V L210W R221K T215Y,20X fold
same,Fen AZT (fold),[8]; Gen. M41I T215Y,40X fold
same,Fen AZT (fold),[8]; Gen. M41L D67N K70RM 184V T215F,>80X fold
same,Fen AZT (fold),[8]; Gen. M41LD 76N K70R T215Y,>80X fold
same,Fen. AZT (fold),[9]; Gen D67N K70R M184V T215Y,40X fold
same,Fen. AZT (fold),[9]; Gen D67N K70R T215F K70R,>80X fold
same,Fen. AZT (fold),[9]; Gen K70R T215F K219Q,20X fold
same,Fen. AZT (fold),[9]; Gen M4IL M184V L210W R211KL 214F T215Y,20X fold
same,Fen. AZT (fold),[9]; Gen M41I T215F,40X fold
same,Fen. AZT (fold),[9]; Gen M41L D67N K70R M184V T215Y,>80X fold
same,Fen. AZT (fold),[9]; Gen M41L D67N K70R T215Y,>80X fold
same,negative events,"HIV; hydroxychloroquine 800 mg/day, AZT 500 mg/day",no negative events were observed
same,patients with an increase of the plasmatic viremia at the end of the treatment,HIV; AZT 500 mg/day (n=37),8 patients
"Nc1nc(NC2CC2)c2ncn([C@H]3C=C[C@@H](CO)C3)c2n1 [ABC, Abacavir]",Fen. ABC (fold),[10]; Gen. K65R L74V M184V,10X fold
same,Fen. ABC (fold),[10]; Gen. K65R S68G F77L Y115F Q151M M184V,40X fold
same,Fen. ABC (fold),[10]; Gen. L74V M184F,10X fold
same,Fen. ABC (fold),[10]; Gen. L74V Y115F M184V,10X fold
same,Fen. ABC (fold),[10]; Gen. M41L D67N M184V L210W T215Y,10X fold
"Cc1c(O)cccc1C(=O)N[C@@H](CSc1ccccc1)[C@H](O)CN1C[C@H]2CCCC[C@H]2C[C@H]1C(=O)NC(C)(C)C [NFV, Nelfinavir]",Fen. NFV (fold),[11]; Gen. D30N A71V,30X fold
same,Fen. NFV (fold),[11]; Gen. D30N M46V A71V,30X fold
same,Fen. NFV (fold),[11]; Gen. G48V V92A,>80X fold
same,Fen. NFV (fold),[11]; Gen. V82F L90M,>80X fold
same,Fen. NFV (fold),[12]; Gen. D30N,30X fold
same,Fen. NFV (fold),[12]; Gen. V82A,20X fold
